Results reported in patent US20140057915A1, “KINASE INHIBITORS” (TOPIVERT PHARMA LIMITED, priority 2012, published 2014).
pEC50, pIC50: −log10 of the molar value.

How the values were obtained:
cSrc = cSrc (Homo sapiens, UniProt P12931); experiment: c-Src enzyme inhibition (FRET); assay type: biochemical; conditions: Table 4a1
Outline: (§1)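 Enzyme was preincubated with test compound (added as 4, 0.4, 0.04 or 0.004 μg/mL solutions) for 2 hr at RT. FRET peptide (8 μM solution) and ATP solution (800 μM for c-Src, 60 μM for Syk) were then added for 1 hr, followed by 1 hr protease development.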

Syk = Syk (Homo sapiens, UniProt P43405); experiment: Syk enzyme inhibition (FRET); assay type: biochemical; conditions: Table 4a1
Outline: as §1

GSK3α = GSK3α (Homo sapiens, UniProt P49840); experiment: GSK 3α enzyme inhibition (FRET), Method 1; assay type: biochemical; conditions: Table 4a1
GSK3α, sequence (P49840 whole entry): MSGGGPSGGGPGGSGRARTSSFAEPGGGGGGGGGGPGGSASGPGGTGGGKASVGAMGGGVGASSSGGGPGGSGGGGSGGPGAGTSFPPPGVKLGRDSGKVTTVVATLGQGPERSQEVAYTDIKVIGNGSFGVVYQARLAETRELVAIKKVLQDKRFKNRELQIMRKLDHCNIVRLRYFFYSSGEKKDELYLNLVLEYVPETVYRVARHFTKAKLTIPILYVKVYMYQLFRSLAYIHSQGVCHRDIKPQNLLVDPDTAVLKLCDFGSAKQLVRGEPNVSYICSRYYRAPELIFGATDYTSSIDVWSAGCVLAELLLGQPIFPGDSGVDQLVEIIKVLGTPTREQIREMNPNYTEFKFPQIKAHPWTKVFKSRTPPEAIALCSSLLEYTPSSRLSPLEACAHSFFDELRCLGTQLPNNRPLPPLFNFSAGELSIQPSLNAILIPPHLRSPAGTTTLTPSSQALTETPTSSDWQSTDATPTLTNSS
Outline: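 GSK3α was preincubated with test compound for 2 hr at RT, then a FRET peptide substrate and ATP were added for 1 hr. Protease development for 1 hr cleaved only non-phosphorylated peptide, and phosphorylation was read as the coumarin/fluorescein emission ratio. Concentrations given are those of the added solutions: enzyme 500 ng/mL, peptide 8 μM, ATP 40 μM.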

[1] = test system: TNFα release, d-U937 cells; experiment: LPS-induced TNFα release in d-U937 cells; assay type: cell-based; conditions: Homo sapiens, dU937; relative to 10 μg/mL BIRB796; Table 4c1; read-out: LPS Induced Release of Cytokine in d-U937 Cells, TNFα REC50
Outline: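 Sandwich ELISA quantifies cytokine in supernatants after 4 hr LPS challenge (0.1 μg/mL) of PMA-differentiated (100 ng/mL, 48–72 hr) U937 macrophages given compound 2 hr beforehand. REC50 derived from concentration-response curve, inhibition calculated relative to vehicle.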

[2] = test system: IL-8 release, d-U937 cells; experiment: LPS-induced IL-8 release in d-U937 cells; assay type: cell-based; conditions: Homo sapiens, dU937; Table 4c1; read-out: LPS Induced Release of Cytokine in d-U937 Cells, IL-8 IC50
Outline: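 IL-8 release after a 4 hr challenge with LPS (0.1 μg/mL, E. coli 0111:B4) following a 2 hr compound pretreatment. Cells were human U937 monocytes differentiated to macrophage-type with PMA 100 ng/mL for 48–72 hr. Relative 50% effective concentration derived from concentration–response data.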

[3] = test system: ICAM-1 expression, BEAS2B cells; experiment: Poly I:C-induced ICAM-1 expression in BEAS2B cells; assay type: cell-based; conditions: Homo sapiens, BEAS-2B; read-out: Poly IC induced ICAM1 in BEAS2B, IC50
Outline: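 Cell-based ELISA for surface ICAM-1 in human BEAS2B cells 18 h after transfection with the RNA-virus mimic poly I:C (1 μg/mL, with Oligofectamine), compounds added 2 h beforehand. OD450–655 divided by Crystal Violet OD595 per well; percent inhibition relative to vehicle.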

d-U937 cells = experiment: Cell viability: MTT assay; assay type: cell-based, human; conditions: 1 μg/mL
Outline: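 MTT reduction (1 h, DMSO solubilisation, A550) measured after compound treatment at 1 or 10 μg/mL of differentiated U937 cells for 4 h (5% FCS RPMI1640) or 24 h (10% FCS). Percentage viability loss computed relative to 0.5% DMSO vehicle, with increases tabulated as negative values.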

cSrc, sequence (P12931 whole entry): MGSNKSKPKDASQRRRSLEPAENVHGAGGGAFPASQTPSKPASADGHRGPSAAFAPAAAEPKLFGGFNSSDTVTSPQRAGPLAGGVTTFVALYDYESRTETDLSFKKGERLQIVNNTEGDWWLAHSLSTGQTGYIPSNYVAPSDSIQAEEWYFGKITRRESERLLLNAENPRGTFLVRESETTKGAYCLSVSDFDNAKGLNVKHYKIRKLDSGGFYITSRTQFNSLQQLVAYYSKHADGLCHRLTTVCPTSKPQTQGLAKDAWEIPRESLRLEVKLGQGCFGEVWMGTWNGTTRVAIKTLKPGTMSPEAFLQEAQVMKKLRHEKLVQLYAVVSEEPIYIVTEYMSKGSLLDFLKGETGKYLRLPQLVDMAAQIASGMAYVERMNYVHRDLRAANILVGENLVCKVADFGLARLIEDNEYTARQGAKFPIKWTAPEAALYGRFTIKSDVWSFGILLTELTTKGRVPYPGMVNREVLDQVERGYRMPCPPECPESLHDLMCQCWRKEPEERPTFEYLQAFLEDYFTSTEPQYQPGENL

Structure (SMILES)	pIC50 (cSrc)	pIC50 (Syk)	pIC50 (GSK3α)	pEC50 [1]	pIC50 [2]	pIC50 [3]	Cell viability at time point in d-U937 cells, 4 h (d-U937 cells)	Cell viability at time point in d-U937 cells, 24 h (d-U937 cells)
COc1cc(Nc2nccc(Oc3ccc(NC(=O)Nc4cc(C(C)(C)C)nn4-c4ccc(C)cc4)c4ccccc34)n2)cc(C(=O)NCCO)c1 [Example 64, 3-((4-((4-(3-(3-(tert-butyl)-1-(p-tolyl)-1H-pyrazol-5-yl)ureido)naphthalen-1-yl)oxy)pyrimidin-2-yl)amino)-N-(2-hydroxyethyl)-5-methoxybenzamide]	8.70	7.89	6.91	9.40	9.10	9.00	−ve (−ve and +ve indicate that the value is below and above respectively, the no significant effect threshold, defined as 30% inhibition at 1 μg/mL at the time point indicated)	−ve (−ve and +ve indicate that the value is below and above respectively, the no significant effect threshold, defined as 30% inhibition at 1 μg/mL at the time point indicated)
COCCNC(=O)c1cc(Nc2nccc(Oc3ccc(NC(=O)Nc4cc(C(C)(C)C)nn4-c4ccc(C)cc4)c4ccccc34)n2)cc(OC)c1 [Example 67, 3-((4-((4-(3-(3-(tert-butyl)-1-(p-tolyl)-1H-pyrazol-5-yl)ureido)naphthalen-1-yl)oxy)pyrimidin-2-yl)amino)-5-methoxy-N-(2-methoxyethyl)benzamide]	8.40	7.40	6.34	10.00	9.00	6.85	−ve (−ve and +ve indicate that the value is below and above respectively, the no significant effect threshold, defined as 30% inhibition at 1 μg/mL at the time point indicated)	−ve (−ve and +ve indicate that the value is below and above respectively, the no significant effect threshold, defined as 30% inhibition at 1 μg/mL at the time point indicated)
Cc1ccc(-n2nc(C(C)(C)C)cc2NC(=O)Nc2ccc(Oc3ccnc(Nc4cccc(C(=O)NCCN5CCN(C)CC5)c4)n3)c3ccccc23)cc1 [Example 25, 3-((4-((4-(3-(3-(tert-butyl)-1-(p-tolyl)-1H-pyrazol-5-yl)ureido)naphthalen-1-yl)oxy)pyrimidin-2-yl)amino)-N-(2-(4-methylpiperazin-1-yl)ethyl)benzamide]	8.40	< 5.88	6.55	9.22	8.82	8.72	−ve (−ve and +ve indicate that the value is below and above respectively, the no significant effect threshold, defined as 30% inhibition at 1 μg/mL at the time point indicated)	−ve (−ve and +ve indicate that the value is below and above respectively, the no significant effect threshold, defined as 30% inhibition at 1 μg/mL at the time point indicated)
COc1cc(Nc2nccc(Oc3ccc(NC(=O)Nc4cc(C(C)C)nn4-c4ccc(C)c(C)c4)c4ccccc34)n2)cc(C(=O)NCCN2CCOCC2)c1 [Example 56, 3-((4-((4-(3-(1-(3,4-dimethylphenyl)-3-isopropyl-1H-pyrazol-5-yl)ureido)naphthalen-1-yl)oxy)pyrimidin-2-yl)amino)-5-methoxy-N-(2-morpholinoethyl)benzamide]	8.30	7.92	< 4.89	8.85	8.77	7.07	−ve (−ve and +ve indicate that the value is below and above respectively, the no significant effect threshold, defined as 30% inhibition at 1 μg/mL at the time point indicated)	−ve (−ve and +ve indicate that the value is below and above respectively, the no significant effect threshold, defined as 30% inhibition at 1 μg/mL at the time point indicated)
COc1cc(Nc2nccc(Oc3ccc(NC(=O)Nc4cc(C(C)C)nn4-c4ccc(C)cc4)c4ccccc34)n2)cc(C(=O)N(C)CCN2CCOCC2)c1 [Example 68, 3-((4-((4-(3-(3-isopropyl-1-(p-tolyl)-1H-pyrazol-5-yl)ureido)naphthalen-1-yl)oxy)pyrimidin-2-yl)amino)-5-methoxy-N-methyl-N-(2-morpholinoethyl)benzamide]	> 9.00	8.70	6.95	9.70	9.30	8.41	−ve (−ve and +ve indicate that the value is below and above respectively, the no significant effect threshold, defined as 30% inhibition at 1 μg/mL at the time point indicated)	−ve (−ve and +ve indicate that the value is below and above respectively, the no significant effect threshold, defined as 30% inhibition at 1 μg/mL at the time point indicated)
COc1ccc(Nc2nccc(Oc3ccc(NC(=O)Nc4cc(C(C)C)nn4-c4ccc(C)cc4)c4ccccc34)n2)cc1C(=O)NCCN1CCOCC1 [Example 70, 5-((4-((4-(3-(3-isopropyl-1-(p-tolyl)-1H-pyrazol-5-yl)ureido)naphthalen-1-yl)oxy)pyrimidin-2-yl)amino)-2-methoxy-N-(2-morpholinoethyl)benzamide]	8.70	7.66	6.28	9.22	8.82	8.05	−ve (−ve and +ve indicate that the value is below and above respectively, the no significant effect threshold, defined as 30% inhibition at 1 μg/mL at the time point indicated)	−ve (−ve and +ve indicate that the value is below and above respectively, the no significant effect threshold, defined as 30% inhibition at 1 μg/mL at the time point indicated)
COc1cc(Nc2nccc(Oc3ccc(NC(=O)Nc4cc(C(C)(C)C)nn4-c4ccc(C)cc4)c4ccccc34)n2)cc(C(=O)NCCN2CCOCC2)c1 [Example 52, 3-((4-((4-(3-(3-(tert-butyl)-1-(p-tolyl)-1H-pyrazol-5-yl)ureido)naphthalen-1-yl)oxy)pyrimidin-2-yl)amino)-5-methoxy-N-(2-morpholinoethyl)benzamide]	8.52	8.22	6.61	9.52	8.82	8.30	−ve (−ve and +ve indicate that the value is below and above respectively, the no significant effect threshold, defined as 30% inhibition at 1 μg/mL at the time point indicated)	−ve (−ve and +ve indicate that the value is below and above respectively, the no significant effect threshold, defined as 30% inhibition at 1 μg/mL at the time point indicated)
COc1ccc(-n2nc(C(C)(C)C)cc2NC(=O)Nc2ccc(Oc3ccnc(Nc4cc(OC)cc(C(N)=O)c4)n3)c3ccccc23)cc1 [Example 41, 3-((4-((4-(3-(3-(tert-butyl)-1-(4-methoxyphenyl)-1H-pyrazol-5-yl)ureido)naphthalen-1-yl)oxy)pyrimidin-2-yl)amino)-5-methoxybenzamide]	8.00	7.82	5.92	9.40	9.40	8.70	−ve (−ve and +ve indicate that the value is below and above respectively, the no significant effect threshold, defined as 30% inhibition at 1 μg/mL at the time point indicated)	−ve (−ve and +ve indicate that the value is below and above respectively, the no significant effect threshold, defined as 30% inhibition at 1 μg/mL at the time point indicated)
COc1cc(Nc2nccc(Oc3ccc(NC(=O)Nc4cc(C(F)(F)F)nn4-c4ccc(C)cc4)c4ccccc34)n2)cc(C(=O)NCCN2CCOCC2)c1 [Example 48, 3-methoxy-N-(2-morpholinoethyl)-5-((4-((4-(3-(1-(p-tolyl)-3-(trifluoromethyl)-1H-pyrazol-5-yl)ureido)naphthalen-1-yl)oxy)pyrimidin-2-yl)amino)benzamide]	8.30	7.11	< 4.89	8.46	7.69	7.49	−ve (−ve and +ve indicate that the value is below and above respectively, the no significant effect threshold, defined as 30% inhibition at 1 μg/mL at the time point indicated)	−ve (−ve and +ve indicate that the value is below and above respectively, the no significant effect threshold, defined as 30% inhibition at 1 μg/mL at the time point indicated)
